Here are results for two compounds from patent US9770409B2, “Aerosol formulations of ondansetron and uses thereof” (LUXENA PHARMACEUTICALS, INC., priority 2013, dated 2017).

Data set [1] can be described thus: Particle size distribution of spray dried ondansetron fine powder by Malvern Mastersizer. In kind it is physicochemical. Conditions: typical particle size distribution. How it is done: The Particle Size Distribution of the Ondansetron Fine Powder, prepared by Spray Drying using the above parameters was measured by Malvern Mastersizer (Malvern Instruments, UK) at GEA Process Engineering, Inc., Columbia, Md., USA.

Data set [2] is described as follows: Solubility of ondansetron in pMDI medium. The data set is classed as physicochemical. The conditions noted are these: for solubility at 8 days: organic solvent or mixture, thermodynamic from solid. How it is done: The solubility of ondansetron was measured in a pMDI medium of HFA 134 as well as a mixture of HFA 134 and ethanol.
The mark [3] stands for this setting: HFA 134a with Ethanol (9:1), 8 days.

Values after ≈ are worked out from the molar mass of the structure shown. Values joined by “and” are separate entries in the source; they are usually repeats but may differ in a detail not shown here. Identical values can stand only once. Like-named read-outs stand apart in the source and are kept apart here.

Regarding `Cc1nccn1CC1CCc2c(c3ccccc3n2C)C1=O` (stereo not shown) [Ondansetron Fine Powder, ondansetron], in data set [1], the “Cumulative % on <10 μm” value is recorded as 99.5%, the D10 amounted to 3.23 μm, the D50 was found to be 5.01 μm and the D90 is on record as 7.22 μm. Also, in data set [1], the “Mean Size” value was determined as 4.80 μm.

By solubility is commonly meant how much of the substance goes into solution per volume. For `Cc1nccn1CC1CCc2c(c3ccccc3n2C)C1=O` (stereo not shown) [ondansetron], the solubility at 8 days in data set [2] (HFA 134a (pMDI medium), HFA 134a alone, read-out: Solubility in HFA 134a, Average (RSD)) came to 37.8 µg/mL (≈ 129 µM); in data set [2] (HFA 134a (pMDI medium), HFA 134a alone, read-out: Solubility in HFA 134a, single determinations), 34.7 µg/mL (≈ 118 µM); in data set [2] (HFA 134a with ethanol (9:1) (pMDI medium), HFA 134a with Ethanol (9:1), read-out: Solubility in HFA 134a with Ethanol (9:1), Average (RSD)), 202 µg/mL (≈ 688 µM); in data set [2] (HFA 134a with ethanol (9:1) (pMDI medium), HFA 134a with Ethanol (9:1), read-out: Solubility in HFA 134a with Ethanol (9:1), single determinations), 199 µg/mL (≈ 680 µM). Moreover, the “Solubility in HFA 134a, single determinations” value in data set [2] (HFA 134a alone, 8 days) is 35.97 µg/mL and 40.27 µg/mL and 40.26 µg/mL. In addition, the “Solubility in HFA 134a as % w/w” value in data set [2] (HFA 134a alone, 8 days, from gravity of HFA 134a 1.21 g/mL) came to 0.00312 % w/w. The “Solubility in HFA 134a with Ethanol (9:1) as % w/w” value in data set [2] (setting [3]) worked out at 0.01668 % w/w. Further, in data set [2] (setting [3]), the “Solubility in HFA 134a with Ethanol (9:1), single determinations” value was 196.85 µg/mL and 215.75 µg/mL and 195.17 µg/mL.
